# Source: US7531533B2, “6-Membered heterocyclic compound and use thereof” (Asahi Kasei Pharma Corporation, priority 2005, dated 2009)
# Experiments:
# human EP3 receptor = molecular target: T1, human EP3 receptor (Homo sapiens, UniProt P43115); assay: [3H]PGE2 receptor binding test, human EP3 receptor expressing HEK293 membrane fraction; details: [3H]PGE2 1 nM
# T1 construct: expressed in transfected cells
# T1 sequence (P43115 1-390): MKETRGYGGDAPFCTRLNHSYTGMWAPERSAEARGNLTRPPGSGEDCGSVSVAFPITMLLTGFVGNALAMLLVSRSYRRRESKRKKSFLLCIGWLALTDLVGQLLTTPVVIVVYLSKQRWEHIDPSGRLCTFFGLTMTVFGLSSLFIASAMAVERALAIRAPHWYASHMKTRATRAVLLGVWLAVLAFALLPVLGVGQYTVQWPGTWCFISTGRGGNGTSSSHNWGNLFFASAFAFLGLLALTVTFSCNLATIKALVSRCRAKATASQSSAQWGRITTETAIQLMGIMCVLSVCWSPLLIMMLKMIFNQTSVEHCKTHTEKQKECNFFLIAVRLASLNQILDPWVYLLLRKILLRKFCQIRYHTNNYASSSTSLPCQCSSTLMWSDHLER
# Description: (§1) Receptor Binding Test by Using Human EP Receptor Expressing Cells
# (§2) In order to evaluate the selectivity for each EP receptor subtype, which is considered to greatly influence on the side reaction of drugs, [^3H]PGE2 binding inhibitory activities of test compounds were measured in HEK293 in which human EP1, human EP2, human EP3, or human EP4 receptor was stably expressed.
# (§3) As a result of searching for prostaglandin E receptors using Refseq Database, the gene information of human EP1 (NM_000955), human EP2 (NM_000956), human EP3 (NM_198719), and human EP4 (NM_000958) was obtained. […] After the reaction, the reaction mixture was subjected to suction filtration under reduced pressure so that [^3H]PGE2 binding to the membrane fraction was trapped on Unifilter Plate GF/C (produced by Packard), and binding radioactivity was measured by using a liquid scintillator.
# (§4) The Kd value was obtained by Scatchard plot. […] The [^3H]PGE2 binding inhibitory activity of a test compound was measured by adding [^3H]PGE2 (1 nM) and a test compound at various concentrations. […]
# (§5) Further, HEK293 in which each of human EP1, human EP2, and human EP3 receptors was stably expressed was established, and a membrane fraction was prepared. […] The ratios of Ki value for human EP4 to Ki values for human EP1, human EP2, and human EP3 were calculated. […]
# human EP1 receptor = molecular target: T2, human EP1 receptor (Homo sapiens, UniProt P34995); assay: [3H]PGE2 receptor binding test, human EP1 receptor expressing HEK293 membrane fraction; details: [3H]PGE2 1 nM
# T2 construct: expressed in transfected cells
# T2 sequence (P34995 1-402): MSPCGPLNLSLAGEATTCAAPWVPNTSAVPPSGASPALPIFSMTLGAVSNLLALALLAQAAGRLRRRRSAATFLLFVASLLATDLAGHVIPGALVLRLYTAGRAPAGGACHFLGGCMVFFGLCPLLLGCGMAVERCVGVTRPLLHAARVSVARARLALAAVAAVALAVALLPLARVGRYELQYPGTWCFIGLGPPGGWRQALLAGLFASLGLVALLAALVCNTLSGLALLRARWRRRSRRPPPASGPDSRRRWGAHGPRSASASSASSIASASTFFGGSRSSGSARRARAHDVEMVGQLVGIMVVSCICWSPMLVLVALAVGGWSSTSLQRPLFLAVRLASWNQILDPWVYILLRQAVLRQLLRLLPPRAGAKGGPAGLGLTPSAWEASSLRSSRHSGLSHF
# Description: as §1, §2, §3, §4, §5
# crab-eating monkeys = assay: Intraocular pressure lowering action in crab-eating monkeys; type: in vivo, crab-eating monkey; details: 50 μl instilled, measured over 6 hours, 3 monkeys
# Description: Intraocular Pressure Lowering Action
# Male crab-eating monkeys with a body weight of 5 to 7.5 kg (5- to 10-year old) were used for the experiment. Example Compound Nos. IAH-H001a, IAH-H010, and IAH-H057 were each dissolved at various concentrations in water or physiological saline containing sodium hydroxide in an amount of the same equivalence as each compound. The intraocular pressure was measured immediately before a treatment with a test compound, then 50 μl of a solution containing each test compound was instilled, and the intraocular pressure was measured over time for 6 hours after the instillation. The intraocular pressure was measured under ketamine (5 to 10 mg/kg, intramuscular injection) anesthetization by using a pneumatic applanation tonometer. Each test compound was used in 3 monkeys, and the intraocular pressures before and after the instillation were compared.
# [1] = system: dextran sulfate-induced inflammatory intestinal disease model mice; assay: Action in dextran sulfate-induced inflammatory intestinal disease model mice; type: in vivo, mouse; details: 7% DSS drinking water 10 days; 0.1-100 mg/kg every day for 10 days
# Description: Action in Dextran Sulfate-Induced Inflammatory Intestinal Disease Model Mice
# 8-Week old female C57BL/6J mice were allowed to take 7% dextran sulfate (henceforth abbreviated as “DSS”) solution as drinking water ad libitum for 10 days to prepare inflammatory intestinal disease model. From the start of DSS intake, Example Compound Nos. IAH-H001a, IAH-H010 and IAH-H057 each dissolved in a suitable solvent (20 to 50% PEG 400 or 15% cyclodextrin) in the same manner as in Formulation Example 1 were given at appropriate doses (0.1 mg/kg, 1 mg/kg, 10 mg/kg, or 100 mg/kg) every day for 10 days (henceforth referred to as “medicament-treated groups”). Further, the solvent used for dissolving the compounds of the present invention was solely given to the mice made to take DSS (henceforth referred to as “solvent group”), and the solvent used for dissolving the compounds of the present invention was solely given every day to the mice allowed to take distilled water not containing DSS as drinking water ad libitum (henceforth referred to as “normal group”). The number of mice in each group was 10. After the start of intake of drinking water, body weight and clinical score were measured every other day. […] The mice were sacrificed 10 days after the start of intake of DSS containing water, and weights of the intestinal tracts of the large intestines were measured.
# human EP2 receptor = molecular target: T3, human EP2 receptor (Homo sapiens, UniProt P43116); assay: [3H]PGE2 receptor binding test, human EP2 receptor expressing HEK293 membrane fraction; details: [3H]PGE2 1 nM
# T3 construct: expressed in transfected cells
# T3 sequence (P43116 whole entry): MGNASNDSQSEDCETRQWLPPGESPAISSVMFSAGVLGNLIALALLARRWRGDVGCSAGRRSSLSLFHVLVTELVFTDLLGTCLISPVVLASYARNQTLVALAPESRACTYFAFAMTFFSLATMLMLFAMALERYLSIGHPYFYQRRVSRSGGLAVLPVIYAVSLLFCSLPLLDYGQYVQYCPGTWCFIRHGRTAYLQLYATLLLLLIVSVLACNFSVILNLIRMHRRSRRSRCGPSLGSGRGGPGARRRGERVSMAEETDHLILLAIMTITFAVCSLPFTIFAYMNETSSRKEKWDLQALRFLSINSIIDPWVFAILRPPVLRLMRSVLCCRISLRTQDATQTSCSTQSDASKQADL
# Description: as §1, §2, §3, §4, §5
compound,measurement,setting,value
"O=C(O)c1ccc(CCN2C(=O)CCCN2CCC(O)Cc2cccc(C(F)(F)F)c2)cc1 (stereo not drawn) [IAH-H001a, 4-[2-(2-{3-hydroxy-4-[3-(trifluoromethyl)-phenyl]butyl}-6-oxotetrahydropyridazin-1-yl)ethyl]benzoic acid]",ratio of Ki values human EP3/human EP4,human EP3 receptor,≥ 45000
same,ratio of Ki values human EP1/human EP4,human EP1 receptor,≥ 80000
same,intraocular pressure after instillation compared with before instillation,crab-eating monkeys,significant intraocular pressure lowering action
same,diarrhea score and bloody stool score compared with the solvent group,[1],significantly improved and suppressed
same,reduction of the large intestine weight compared with the solvent group,[1],significantly suppressed
same,ratio of Ki values human EP2/human EP4,human EP2 receptor,15000
